Source: patent US5712129A, “Rapamycin derivative with antimicrobial, anticancer and immunomodulation activity” (SmithKline Beecham p. l. c., priority 1993, dated 1998)
Read-outs that look alike come from different tables or passages of the source.

Tested on: Spleen cells
Assay: Mitogenesis assay for immunosuppressive activity (concanavalin A stimulated spleen cells, 3H-thymidine)
Format: cell-based, BDF1 female mice
Settings: Mus musculus, read-out: Mitogenesis (IC50)
Procedure: Spleen cells for BDF1 female mice were established in RPMI with 10% fetal calf serum at 5×10^6 /mL. One hundred […] of this suspension (5×10^5 cells) were dispensed into 96-well round-bottomed microtiter plates (Linbro, Flow Laboratories). Concanavalin A (5 μg/ml) was added as the mitogenic stimulus, and the final volume in the microtiter wells was adjusted to 200 μL with RPMI. Cell cultures were incubated for 72 hours at 37° C. in a 5% CO2 atmosphere and pulsed with 0.5 μCi ^3 H-thymidine (specific activity […]) for the last 18 hours of the 72 hours culture. The cells were harvested on an automated multiple sample harvester and cell-associated radioactivity counted in a Beckman liquid scintillation counter. The results were expressed as the mean values derived from quadruplicate measurements. Cell viability was determined by trypan blue exclusion after 72 hours of incubation. Compounds to be tested were added to the microtiter plates at the appropriate dilutions prior to the addition of cells.

Compound | IC50 (Concanavalin A 5 μg/ml, 72 hours at 37° C., 3H-thymidine pulse last 18 hours) | IC50
COC1CC2CCC(C)C(O)(O2)C(=O)C(=O)N2CCCCC2C(=O)OC(C(C)CC2CCC(O)C(O)C2)CC(=O)C(C)C=C(C)C(O)C(OC)C(=O)C(C)CC(C)C=CC=CC=C1C (centres unmarked) [42-O-demethylrapamycin] | 3 nM | –
CO[C@H]1C[C@@H]2CC[C@@H](C)[C@@](O)(O2)C(=O)C(=O)N2CCCC[C@H]2C(=O)O[C@H]([C@H](C)C[C@@H]2CC[C@@H](O)[C@H](OC)C2)CC(=O)[C@H](C)/C=C(\C)[C@@H](O)[C@@H](OC)C(=O)[C@H](C)C[C@H](C)/C=C/C=C/C=C/1C [rapamycin] | – | 1 ± 1 nM
